Assay results as given in patent US7417156B2, “Orally active, antimalarial, anticancer, artemisinin-derived trioxane dimers” (Johns Hopkins University, priority 2002, dated 2008).

Tests used:
60 cell line panel = assay type: cell-based
K-562 = test: NCI 60 cell line panel screen (SRB); assay type: cell-based, human
RPMI-8226 = test: NCI 60 cell line panel screen (SRB); assay type: cell-based, human
HOP-62 = test: NCI 60 cell line panel screen (SRB); assay type: cell-based, human
NCI-H322M = assay type: cell-based
NCI-H460 = test: NCI 60 cell line panel screen (SRB); assay type: cell-based, human
HCT-116 = test: NCI 60 cell line panel screen (SRB); assay type: cell-based, human
HT29 = test: NCI 60 cell line panel screen (SRB); assay type: cell-based, human
SF-539 = test: NCI 60 cell line panel screen (SRB); assay type: cell-based, human
SNB-19 = test: NCI 60 cell line panel screen (SRB); assay type: cell-based, human
UACC-257 = test: NCI 60 cell line panel screen (SRB); assay type: cell-based, human
IGROVI = test: NCI 60 cell line panel screen (SRB); assay type: cell-based, human
OVCAR-3 = test: NCI 60 cell line panel screen (SRB); assay type: cell-based, human
OVCAR-8 = test: NCI 60 cell line panel screen (SRB); assay type: cell-based, human
ACHN = test: NCI 60 cell line panel screen (SRB); assay type: cell-based, human; conditions: ACHN (Renal Cancer)
CAKI-1 = test: NCI 60 cell line panel screen (SRB); assay type: cell-based, human; conditions: CAKI-1 (Renal Cancer); LC50: PG=−50
RXF 393 = test: NCI 60 cell line panel screen (SRB); assay type: cell-based, human
PC-3 = test: NCI 60 cell line panel screen (SRB); assay type: cell-based, human
NCI/ADR-RES = test: NCI 60 cell line panel screen (SRB); assay type: cell-based, human
BT-549 = test: NCI 60 cell line panel screen (SRB); assay type: cell-based, human
T-47D = test: NCI 60 cell line panel screen (SRB); assay type: cell-based, human

For `CC(=O)O[C@H]1C(=O)[C@@]2(C)[C@H]([C@H](OC(=O)c3ccccc3)[C@]3(O)C[C@H](OC(=O)[C@H](O)[C@@H](NC(=O)c4ccccc4)c4ccccc4)C(C)=C1C3(C)C)[C@]1(OC(C)=O)CO[C@@H]1C[C@@H]2O` [Paclitaxel, paclitaxel, reference compound], the “Log10GI50 Delta” value (60 cell line panel) was −10.15, the “Log10GI50 Range” value (60 cell line panel) was 8.00 and the “Log10LC50 Delta” value (60 cell line panel; 60 cell line panel) was −4.06. The “Log10LC50 Range” value (60 cell line panel; 60 cell line panel) was “.045”, the “Log10TGI50 Delta” value (60 cell line panel; 60 cell line panel) was −4.54 and the “Log10TGI50 Range” value (60 cell line panel; 60 cell line panel) was 7.20. It also gave a Log10LC50 (K-562; K-562 (Leukemia), LC50: PG=−50) greater than −4.00 log10M, a Log10TGI50 (K-562; K-562 (Leukemia), TGI: PG=0) greater than −4.00 log10M and a Log10GI50 (K-562; Leukemia, K-562) of −10.83. The Log10GI50 (RPMI-8226; Leukemia, RPMI-8226) was less than −13.00, the Log10LC50 (RPMI-8226; RPMI-8226 (Leukemia), LC50: PG=−50) was greater than −4.00 log10M and the Log10TGI50 (RPMI-8226; RPMI-8226 (Leukemia), TGI: PG=0) was greater than −4.00 log10M. For the same compound, the Log10LC50 (HOP-62; HOP-62 (Non-Small Cell Lung Cancer), LC50: PG=−50) was −4.10 log10M, the Log10TGI50 (HOP-62; HOP-62 (Non-Small Cell Lung Cancer), TGI: PG=0) was −4.80 log10M and the Log10GI50 (HOP-62; Non-Small Cell Lung Cancer, HOP-62) was −9.67. For the same compound, the Log10LC50 (NCI-H322M; NCI-H322M (Non-Small Cell Lung Cancer), LC50: PG=−50) was greater than −4.00 log10M, the Log10TGI50 (NCI-H322M; NCI-H322M (Non-Small Cell Lung Cancer), TGI: PG=0) was −4.46 log10M and the Log10GI50 (NCI-H322M; Non-Small Cell Lung Cancer, NCI-H322M) was −10.12. It also gave a Log10LC50 (NCI-H460; NCI-H460 (Non-Small Cell Lung Cancer), LC50: PG=−50) greater than −4.00 log10M, a Log10TGI50 (NCI-H460; NCI-H460 (Non-Small Cell Lung Cancer), TGI: PG=0) of −4.92 log10M and a Log10GI50 (NCI-H460; Non-Small Cell Lung Cancer, NCI-H460) of −12.16. The Log10GI50 (HCT-116; Colon Cancer, HCT-116) was less than −13.00, the Log10LC50 (HCT-116; HCT-116 (Colon Cancer), LC50: PG=−50) was greater than −4.00 log10M and the Log10TGI50 (HCT-116; HCT-116 (Colon Cancer), TGI: PG=0) was −4.82 log10M. The Log10GI50 (HT29; Colon Cancer, HT29) was less than −13.00, the Log10LC50 (HT29; HT29 (Colon Cancer), LC50: PG=−50) was −4.39 log10M and the Log10GI50 (SF-539; CNS Cancer, SF-539) was −11.09. The Log10LC50 (SF-539; SF-539 (CNS Cancer), LC50: PG=−50) was greater than −4.00 log10M, the Log10GI50 (SNB-19; CNS Cancer, SNB-19) was −8.98 and the Log10LC50 (SNB-19; SNB-19 (CNS Cancer), LC50: PG=−50) was greater than −4.00 log10M. The Log10TGI50 (SNB-19; SNB-19 (CNS Cancer), TGI: PG=0) was greater than −4.00 log10M, the Log10GI50 (UACC-257; Melanoma, UACC-257) was −10.30 and the Log10LC50 (UACC-257; UACC-257 (Melanoma), LC50: PG=−50) was −4.03 log10M. For the same compound, the Log10TGI50 (UACC-257; UACC-257 (Melanoma), TGI: PG=0) was −4.52 log10M, the Log10LC50 (IGROVI; IGROVI (Ovarian Cancer), LC50: PG=−50) was greater than −4.00 log10M and the Log10TGI50 (IGROVI; IGROVI (Ovarian Cancer), TGI: PG=0) was −4.19 log10M. The Log10GI50 (IGROVI; Ovarian Cancer, IGROVI) was −8.61, the Log10LC50 (OVCAR-3; OVCAR-3 (Ovarian Cancer), LC50: PG=−50) was greater than −4.00 log10M and the Log10TGI50 (OVCAR-3; OVCAR-3 (Ovarian Cancer), TGI: PG=0) was −4.55 log10M. It also gave a Log10GI50 (OVCAR-3; Ovarian Cancer, OVCAR-3) of −10.40, a Log10LC50 (OVCAR-8; OVCAR-8 (Ovarian Cancer), LC50: PG=−50) greater than −4.00 log10M and a Log10GI50 (OVCAR-8; Ovarian Cancer, OVCAR-8) of −10.75. For the same compound, the Log10LC50 (ACHN; LC50: PG=−50) was −4.45 log10M, the Log10TGI50 (ACHN; TGI: PG=0) was −4.90 log10M and the Log10LC50 (CAKI-1) was greater than −4.00 log10M. For the same compound, the Log10LC50 (RXF 393; RXF 393 (Renal Cancer), LC50: PG=−50) was greater than −4.00 log10M, the Log10TGI50 (RXF 393; RXF 393 (Renal Cancer), TGI: PG=0) was greater than −4.00 log10M and the Log10GI50 (RXF 393; Renal Cancer, RXF 393) was −8.32. It also gave a Log10LC50 (PC-3; PC-3 (Prostate Cancer), LC50: PG=−50) greater than −4.00 log10M, a Log10TGI50 (PC-3; PC-3 (Prostate Cancer), TGI: PG=0) greater than −4.00 log10M and a Log10GI50 (PC-3; Prostate Cancer, PC-3) of −10.85. For the same compound, the Log10GI50 (NCI/ADR-RES; Breast Cancer, NCI/ADR-RES) was −8.48, the Log10LC50 (NCI/ADR-RES; NCI/ADR-RES (Breast Cancer), LC50: PG=−50) was greater than −4.00 log10M and the Log10TGI50 (NCI/ADR-RES; NCI/ADR-RES (Breast Cancer), TGI: PG=0) was greater than −4.00 log10M. For the same compound, the Log10LC50 (BT-549; BT-549 (Breast Cancer), LC50: PG=−50) was greater than −4.00 log10M, the Log10TGI50 (BT-549; BT-549 (Breast Cancer), TGI: PG=0) was −6.32 log10M and the Log10GI50 (BT-549; Breast Cancer, BT-549) was −9.31. The Log10GI50 (T-47D; Breast Cancer, T-47D) was −9.81 and the Log10LC50 (T-47D; T-47D (Breast Cancer), LC50: PG=−50) was greater than −4.00 log10M.
